Test results: patent EP2108642A1, “JAK INHIBITOR” (Kyowa Hakko Kirin Co., Ltd., priority 2006, dated 2008)
Counter-ions that a name gives are not always drawn.

Experiments:
[1] = biological target: T1, human JAK2 (Homo sapiens, UniProt O60674); experiment: JAK2 enzyme inhibitory activity (time-resolved fluorescence kinase assay with biotinylated Lyn-substrate peptide); format: biochemical; conditions: at a concentration of 1 µmol/L; His-tagged JAK2 (826-1132 amino acids), 10 µmol/L ATP, 30°C, 60 minutes
T1 construct: a functional domain (826-1132 amino acids) of human JAK2
T1 sequence (O60674 826-1132): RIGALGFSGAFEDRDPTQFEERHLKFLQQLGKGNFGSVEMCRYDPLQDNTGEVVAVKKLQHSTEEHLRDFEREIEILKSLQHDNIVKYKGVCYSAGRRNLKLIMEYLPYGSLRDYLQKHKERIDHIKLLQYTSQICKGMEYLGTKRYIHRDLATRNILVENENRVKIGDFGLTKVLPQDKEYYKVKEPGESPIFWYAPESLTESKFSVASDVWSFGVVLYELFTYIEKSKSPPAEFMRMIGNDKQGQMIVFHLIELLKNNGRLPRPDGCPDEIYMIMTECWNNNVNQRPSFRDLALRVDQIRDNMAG
Procedure: In order to measure the JAK2 enzyme inhibitory activity, the following process was employed. […] The relative activity (%) of the well containing the test compound was calculated by assuming the activity of the well of the enzyme to which 0.1% DMSO was added as 100% and the activity of the well to which no enzyme was added as 0%, and the difference between 100 and the obtained value was assumed to be the JAK2 inhibition ratio (%) of the test compound.

[2] = system: human acute myeloid leukemia cell line (HEL92.1.7) having a JAK2 V617F mutation; experiment: Cell growth inhibitory activity against human acute myeloid leukemia cell line (WST-1 assay); format: cell-based; conditions: at a concentration of 10 µmol/L against HEL92.1.7, 72 hours culture
Procedure: Test Example 2: Cell growth inhibitory activity against human acute myeloid leukemia cell line
The cell growth inhibitory activity of test compound against a human acute myeloid leukemia cell line (HEL92.1.7) (ATCC No. TIB-180) having a JAK2 V617F mutation was measured according to the following process.
A Roswell Park Memorial Institute's Medium (RPMI) 1640 medium (GIBCO, catalog No. 11875-093) containing 10% fetal bovine serum (GIBCO, catalog No. 10437-028) was used to culture each cells. HEL92.1.7 cells controlled at 2. 5 × 10^4 cells/mL were inoculated into a TC MICROWELL 96U plate (Nalge Nunc, catalog No. 163320) at 80 µL per well, and were cultured at 37°C for 4 hours in a 5% carbon dioxide gas incubator. Then, 20 µL per well of DMSO solutions of test compounds adjusted to a final concentration of 10 µmol/L were added to the HEL92.1.7 cells, and the resulting mixtures were cultured again at 37°C for 72 hours in a 5% carbon dioxide gas incubator. Finally, 25 µL of WST-1 reagent {4-[3-(4-indophenyl)-2-(4-nitrophenyl)-2H-5-tetrazolio]-1,3-benz ene disulfonate sodium salt} (Roche Diagnostics K.K., catalog No. 1644807) diluted to 40% with the medium described above was added, and incubation was conducted at 37°C for 2 hours, followed by measuring absorbance at 450 nm (reference wavelength: 690 nm) with a microplate spectrophotometer SPECTRA max 340PC (Molecular Devices). As for the cell growth inhibition ratio, the relative activity (%) of the well containing a test compound was calculated by assuming the activity of the well in which […] a medium to which only DMSO was added as 0%, and then the difference between 100 and the obtained value was assumed as the growth inhibition ratio (%) of the test compound. The higher the value, the stronger the growth inhibition activity against the cells.

O=C1NCc2c(C#CCCO)ccc(-c3cc4cc(CN5CCCCC5)ccc4[nH]3)c21 [Compound 320, 4-(4-Hydroxy-1-butynyl)-7-[1H-5-(piperidinomethyl)indol-2-yl]iso indolinone hydrochloride]
JAK2 inhibition ratio [1]: ≥ 50% | cell growth inhibition ratio [2]: ≥ 50%

CN(C)Cc1cc(-c2cc3cc(CN4CCCCC4)ccc3[nH]2)c2c(c1O)CNC2=O [Compound 562, 4-Hydroxy-5-(dimethylaminomethyl)-7-[1H-5-(piperidinomethyl)indol-2-yl]isoindolinone dihydrochloride]
JAK2 inhibition ratio [1]: ≥ 50% | cell growth inhibition ratio [2]: ≥ 50%

CCN(CC)Cc1ccc2[nH]c(-c3cc(CN(C)C)cc4c3C(=O)NC4)cc2c1 [Compound 504, 5-(Dimethylaminomethyl)-7-[1H-5-(diethylaminomethyl)indol-2-yl)i soindolinone]
JAK2 inhibition ratio [1]: ≥ 50% | cell growth inhibition ratio [2]: ≥ 50%

O=C1NCc2c(-c3ccc(O)cc3)ccc(-c3cc4cc(CN5CCCCC5)ccc4[nH]3)c21 [Compound 305, 4-(4-Hydroxyphenyl)-7-[1H-5-(piperidinomethyl)indol-2-yl]isoindo linone hydrochloride]
JAK2 inhibition ratio [1]: ≥ 50% | cell growth inhibition ratio [2]: ≥ 50%

CC(C)Oc1cc2c(c(-c3ccc[nH]3)c1)C(=O)NC2 [Compound 571, 5-(2-Propyloxy)-7-(1H-pyrrol-2-yl)isoindolinone]
JAK2 inhibition ratio [1]: ≥ 50% | cell growth inhibition ratio [2]: ≥ 50%

Cc1cc(O)ccc1-c1cc2c(c(-c3cc4cc(CN5CCCCC5)ccc4[nH]3)c1)C(=O)NC2 [Compound 550, 5-(4-Hydroxy-2-methylphenyl)-7-[1H-5-(piperidinomethyl)indol-2-yl]isoindolinone]
JAK2 inhibition ratio [1]: ≥ 50% | cell growth inhibition ratio [2]: ≥ 50%

CC(C)Oc1cc2c(c(-c3cc4cc(CN5CCCCC5)ccc4[nH]3)c1)C(=O)NC2 [Compound 484, 5-(2-Propyloxy)-7-[1H-5-(piperidinomethyl)indol-2-yl]isoindolinone hydrochloride]
JAK2 inhibition ratio [1]: ≥ 50% | cell growth inhibition ratio [2]: ≥ 50%

CCN(CC)Cc1ccc2[nH]c(-c3cc(C(O)C(C)C)cc4c3C(=O)NC4)cc2c1 (centres unmarked) [Compound 555, 5-(1-Hydroxy-2-methylpropyl)-7-[1H-5-(diethylaminomethyl)indol-2-yl]isoindolinone hydrochloride]
JAK2 inhibition ratio [1]: ≥ 50% | cell growth inhibition ratio [2]: ≥ 50%

CN(C)Cc1cc2c(c(-c3cc4cc(CN5CCN(CCO)CC5)ccc4[nH]3)c1)C(=O)NC2 [Compound 483, 5-(Dimethylaminomethyl)-7-{1H-5-[4-(2-hydroxyethyl)piperazin-1-ylmethyl]indol-2-yl}isoindolinone trihydrochloride]
JAK2 inhibition ratio [1]: ≥ 50% | cell growth inhibition ratio [2]: ≥ 50%

CC(C)Nc1cc2c(c(-c3cc4cc(CN5CCCCC5)ccc4[nH]3)c1)C(=O)NC2 [Compound 509, 5-(2-Propylamino)-7-[1H-5-(piperidinomethyl)indol-2-yl)isoindoli none dihydrochloride]
JAK2 inhibition ratio [1]: ≥ 50% | cell growth inhibition ratio [2]: ≥ 50%
